Like-named read-outs stand apart in the source and are kept apart here.
Assays:
[1] = target: T1, PDE7A (Homo sapiens, UniProt Q13946); test: PDE enzymatic profile; format: biochemical
T1 construct: purchased Scottish Biochem (Glasgow, Scotland, UK)

[2] = target: T2, PDE8A1 (Homo sapiens, UniProt O60658); test: PDE enzymatic profile; format: biochemical
T2 construct: purchased Scottish Biochem (Glasgow, Scotland, UK)

[3] = target: T3, PDE8B1 (Homo sapiens, UniProt O95263); test: PDE enzymatic profile; format: biochemical
T3 construct: purchased Scottish Biochem (Glasgow, Scotland, UK)
T3 sequence (O95263 whole entry): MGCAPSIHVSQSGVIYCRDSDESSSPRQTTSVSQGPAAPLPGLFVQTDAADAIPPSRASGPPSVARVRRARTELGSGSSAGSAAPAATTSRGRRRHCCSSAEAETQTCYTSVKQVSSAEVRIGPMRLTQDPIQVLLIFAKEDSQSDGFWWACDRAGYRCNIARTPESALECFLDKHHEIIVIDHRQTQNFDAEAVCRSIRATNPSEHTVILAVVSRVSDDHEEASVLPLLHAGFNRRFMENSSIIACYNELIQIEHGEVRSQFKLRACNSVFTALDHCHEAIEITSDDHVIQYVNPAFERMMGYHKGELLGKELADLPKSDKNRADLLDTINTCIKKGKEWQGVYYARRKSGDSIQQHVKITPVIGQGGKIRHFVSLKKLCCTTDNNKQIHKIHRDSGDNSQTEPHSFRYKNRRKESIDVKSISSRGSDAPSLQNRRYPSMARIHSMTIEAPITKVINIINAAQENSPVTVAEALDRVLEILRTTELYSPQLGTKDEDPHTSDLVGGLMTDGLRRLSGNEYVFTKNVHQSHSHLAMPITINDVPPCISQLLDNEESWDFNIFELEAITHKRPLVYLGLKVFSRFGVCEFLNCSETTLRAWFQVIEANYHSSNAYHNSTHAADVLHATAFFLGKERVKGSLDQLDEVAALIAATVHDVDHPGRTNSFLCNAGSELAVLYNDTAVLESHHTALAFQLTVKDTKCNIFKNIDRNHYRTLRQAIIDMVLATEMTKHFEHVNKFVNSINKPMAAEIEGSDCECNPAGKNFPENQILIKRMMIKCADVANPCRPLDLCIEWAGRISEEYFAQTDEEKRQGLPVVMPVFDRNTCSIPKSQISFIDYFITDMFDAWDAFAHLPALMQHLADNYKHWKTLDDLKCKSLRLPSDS

[4] = target: T4, PDE7B (Homo sapiens, UniProt Q9NP56); test: PDE enzymatic profile; format: biochemical
T4 construct: purchased Scottish Biochem (Glasgow, Scotland, UK)
T4 sequence (Q9NP56 whole entry): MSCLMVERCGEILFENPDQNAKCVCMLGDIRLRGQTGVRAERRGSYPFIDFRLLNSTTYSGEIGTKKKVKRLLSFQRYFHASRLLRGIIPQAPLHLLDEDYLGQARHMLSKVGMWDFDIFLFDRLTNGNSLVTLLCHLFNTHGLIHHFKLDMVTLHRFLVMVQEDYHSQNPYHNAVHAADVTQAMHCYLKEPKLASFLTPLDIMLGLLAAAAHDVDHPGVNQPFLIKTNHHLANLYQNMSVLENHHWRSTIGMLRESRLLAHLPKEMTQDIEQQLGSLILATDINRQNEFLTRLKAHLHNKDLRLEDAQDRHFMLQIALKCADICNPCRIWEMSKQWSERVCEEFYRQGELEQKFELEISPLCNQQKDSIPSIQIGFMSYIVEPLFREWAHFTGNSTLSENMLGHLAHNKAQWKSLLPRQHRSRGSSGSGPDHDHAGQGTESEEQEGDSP

[5] = target: T5, PDE9A1 (Homo sapiens, UniProt O76083); test: PDE enzymatic profile; format: biochemical; conditions: read-out: GEBR-32a % inhibition, recombinant human PDE expressed in baculovirus, NI = no inhibition
T5 construct: purchased Scottish Biochem (Glasgow, Scotland, UK)

[6] = system: HTLA cells; test: Cytotoxicity, lactate dehydrogenase release; format: cell-based, human; conditions: 100 μM, 24 hours
Procedure: (§1) At the end of the incubation period, lactate-dehydrogenase release was measured in conditioned media using the Cytoxicity Detection Kit^PLUS (Roche, Germany) according to manufacturer protocols.

[7] = system: aged WT and Tg2576 mice; test: Hippocampal long-term potentiation, fEPSP recordings in slices of chronically treated mice; format: in vivo, mouse; conditions: chronic 0.03 mg/kg for 23 days
Procedure: Electrophysiological recordings have been carried out as previously described. […] A concentric bipolar platinum-iridium stimulation electrode and a low-resistance glass recording microelectrode filled with saline solution ([…]) were placed in CA1 stratum radiatum to record the extracellular field excitatory postsynaptic potential (fEPSP). Basal synaptic transmission was assayed by plotting the stimulus voltages against slopes of fEPSP.

[8] = target: T6, PDE4B1 (Homo sapiens, UniProt Q07343); test: PDE enzymatic profile; format: biochemical; conditions: read-out: GEBR-32a % inhibition, recombinant human PDE expressed in baculovirus
T6 construct: purchased Scottish Biochem (Glasgow, Scotland, UK); host or cells: baculovirus system

[9] = target: T7, PDE4A1 (Homo sapiens, UniProt P27815); test: PDE enzymatic profile; format: biochemical; conditions: read-out: GEBR-32a % inhibition, recombinant human PDE expressed in baculovirus
T7 construct: purchased Scottish Biochem (Glasgow, Scotland, UK); host or cells: baculovirus system

[10] = system: HTLA cells; test: Genotoxicity, phosphorylation of histone H2A.X (Western blot); format: cell-based, human; conditions: 100 μM, 24 hours
Procedure: as §1
To evaluate genotoxicity, cells were processed for total protein extraction as described previously. Immunoblots were done according to standard methods, using the following antibodies: mouse monoclonal to gamma H2A.X (2F3, phospho S139) and rabbit polyclonal to Histone H2A.X (Abcam, UK); anti-mouse and anti-rabbit secondary antibodies coupled to horseradish peroxidase (GE Healthcare, UK). Proteins were visualized with an enzyme-linked chemiluminescence detection kit according to the manufacturer’s instructions (GE Healthcare). Chemiluminescence was monitored by exposure to films and signals were analyzed under non-saturating condition with an image densitometer (Bio-Rad, CA, USA).

[11] = target: T8, PDE10A1 (Homo sapiens, UniProt Q9Y233); test: PDE enzymatic profile; format: biochemical
T8 construct: purchased Scottish Biochem (Glasgow, Scotland, UK)
T8 sequence (Q9Y233 1-779 isoform Q9Y233-1): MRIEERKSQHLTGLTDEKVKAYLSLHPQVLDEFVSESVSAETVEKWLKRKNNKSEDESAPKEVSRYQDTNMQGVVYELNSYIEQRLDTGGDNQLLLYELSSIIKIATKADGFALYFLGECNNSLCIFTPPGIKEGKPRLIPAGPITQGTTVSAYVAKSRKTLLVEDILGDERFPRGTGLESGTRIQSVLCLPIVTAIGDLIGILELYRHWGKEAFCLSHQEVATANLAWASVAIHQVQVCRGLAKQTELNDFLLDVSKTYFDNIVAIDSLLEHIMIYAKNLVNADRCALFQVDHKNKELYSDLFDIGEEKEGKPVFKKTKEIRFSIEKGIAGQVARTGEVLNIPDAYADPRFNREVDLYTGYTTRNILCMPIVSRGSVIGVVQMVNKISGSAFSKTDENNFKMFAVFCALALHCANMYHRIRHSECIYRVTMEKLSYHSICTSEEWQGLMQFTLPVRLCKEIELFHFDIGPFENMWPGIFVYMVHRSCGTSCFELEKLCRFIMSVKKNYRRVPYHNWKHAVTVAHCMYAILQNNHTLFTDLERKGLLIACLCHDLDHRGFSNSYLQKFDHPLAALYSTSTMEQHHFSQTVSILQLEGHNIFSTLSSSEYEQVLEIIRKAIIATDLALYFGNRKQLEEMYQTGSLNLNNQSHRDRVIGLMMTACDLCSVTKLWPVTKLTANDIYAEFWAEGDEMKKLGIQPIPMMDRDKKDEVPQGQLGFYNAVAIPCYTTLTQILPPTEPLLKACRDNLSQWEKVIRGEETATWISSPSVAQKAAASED

[12] = system: rat hippocampal slices; test: cAMP determination in hippocampal slices; format: cell-based; conditions: forskolin 0.1 μM
Procedure: Hippocampal slices (400 μm thick) were obtained from adult Sprague Dawley rats using a McIlwain tissue chopper and pre-incubated in physiological medium[52] […] Finally, slices were left in hot medium (90 °C) for 15 min, sonicated and centrifuged at 10000 g for 15 min. The supernatant was used for cAMP determination, using the same kit as above, and the pellet for protein quantification.
(§2) Results from cells and slices are presented as fold increase and represent mean ± S.E.M. of the number of experiments reported in the figure legend. Normal distribution was evaluated by Kolmogorov–Smirnov test and then data have been analysed by one-way ANOVA followed by Newman-Keuls or Dunnett’s tests, as appropriate.

[13] = target: T9, PDE4B3 (Homo sapiens, UniProt Q07343); test: PDE enzymatic profile; format: biochemical; conditions: read-out: GEBR-32a % inhibition, recombinant human PDE expressed in baculovirus
T9 construct: purchased Scottish Biochem (Glasgow, Scotland, UK); host or cells: baculovirus system
T9 sequence (Q07343 1-721 isoform Q07343-3): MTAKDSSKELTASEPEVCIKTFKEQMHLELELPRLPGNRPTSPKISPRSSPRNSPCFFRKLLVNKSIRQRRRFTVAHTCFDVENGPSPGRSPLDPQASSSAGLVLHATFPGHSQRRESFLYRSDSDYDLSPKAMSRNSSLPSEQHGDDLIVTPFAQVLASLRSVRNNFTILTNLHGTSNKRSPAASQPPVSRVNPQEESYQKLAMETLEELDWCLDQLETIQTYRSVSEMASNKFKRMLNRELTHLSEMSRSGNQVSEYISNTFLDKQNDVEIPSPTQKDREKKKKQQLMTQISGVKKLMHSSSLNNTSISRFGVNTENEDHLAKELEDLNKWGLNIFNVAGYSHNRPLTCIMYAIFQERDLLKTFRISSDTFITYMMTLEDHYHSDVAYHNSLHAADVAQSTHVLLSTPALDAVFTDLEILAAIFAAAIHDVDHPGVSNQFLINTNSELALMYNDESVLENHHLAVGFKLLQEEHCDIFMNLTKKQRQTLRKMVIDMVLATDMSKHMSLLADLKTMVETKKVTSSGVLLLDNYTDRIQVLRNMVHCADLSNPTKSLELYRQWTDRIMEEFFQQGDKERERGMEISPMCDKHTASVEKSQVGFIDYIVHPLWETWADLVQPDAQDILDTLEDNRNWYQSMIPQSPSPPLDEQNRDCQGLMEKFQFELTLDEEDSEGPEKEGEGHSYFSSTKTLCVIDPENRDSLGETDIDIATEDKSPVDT

[14] = target: T10, PDE2A3 (Homo sapiens, UniProt O00408); test: PDE enzymatic profile; format: biochemical; conditions: read-out: GEBR-32a % inhibition, recombinant human PDE expressed in baculovirus, NI = no inhibition
T10 construct: purchased Scottish Biochem (Glasgow, Scotland, UK)

[15] = system: WT and Tg2576 mice; test: Y-maze continuous alternation task; format: in vivo, mouse
Procedure: The apparatus was made of grey Plexiglas with three arms symmetrically placed together at a 120° angle. At the beginning of the trial, each mouse was placed in one of three arms (randomly divided and balanced) and was then allowed to freely explore the apparatus for 6 minutes. The number of entries into a different arm and the order was measured. An entry was only counted if all four paws of the animal were placed completely inside the arm. When a mouse visited all 3 arms consecutively, it made a triad. In between trials, the apparatus was cleaned with a 70% ethanol solution to avoid olfactory cues. […] Of note, there was no statistical difference between testing sessions (day effect; data not shown) and, therefore, both test sessions were pooled. To measure spatial working memory, the percentage of alternations was calculated by taking the number of triads and dividing it through the maximum possible alternations (total entries minus 2) and multiply this by 100. A score of 50% alternations is considered chance level and, therefore, a significant difference from 50% is indicative of functional working memory. Normal distribution of data was evaluated by Kolmogorov–Smirnov and one-way ANOVA was performed to evaluate differences between the conditions. For each condition, one-sample t-test was used for comparison versus the score of 50%.

[16] = Pharmacokinetic analysis, plasma and brain; format: in vivo; conditions: male, mouse
Procedure: For blood analysis, 25 μL of plasma were transferred into a 1.5 mL Eppendorf tube and were added with 25 μL of methanol and 25 μL of internal standard (500 ng/mL voriconazole), followed by the addition of 100 μL methanol. As for brains, 100 mg of tissue were placed into a plastic tube and added with 500 μL of methanol to facilitate homogenization, which was carried out using a Fluko F6/10 superfine homogenizer for approximately 1 min. […] A 25 μL aliquot of the homogenized samples was transferred into an Eppendorf tube and added with 20 μL of internal standard (500 ng/mL voriconazole) followed by the addition of 100 μL of methanol. […] AUC0-t: the area under the plasma/brain concentration versus time curve from time 0 to the last measurable concentration was calculated by using the linear trapezoidal rule. Cmax: the maximum observed plasma concentration.

[17] = system: HTLA cells; test: cAMP determination in cultured cells; format: cell-based, human; conditions: 100 μM
Procedure: The cells used in this study (human neuroblastoma cell line HTLA-230, HTLA) were grown in Roswell Park Memorial Institute medium (RPMI), with 0.1 mM non-essential aminoacids and 10% fetal bovine serum. At the end of treatments, intracellular cAMP was measured with the DetectX® Direct Cyclic AMP Enzyme Immunoassay Kit (Arbor Assay, MI, USA), following the manufacturer’s protocol.
as §2

[18] = target: T11, PDE5A1 (Homo sapiens, UniProt O76074); test: PDE enzymatic profile; format: biochemical
T11 construct: purchased Scottish Biochem (Glasgow, Scotland, UK)

[19] = target: T12, PDE1B (Homo sapiens, UniProt Q01064); test: PDE enzymatic profile; format: biochemical
T12 construct: purchased Scottish Biochem (Glasgow, Scotland, UK)
T12 sequence (Q01064 whole entry): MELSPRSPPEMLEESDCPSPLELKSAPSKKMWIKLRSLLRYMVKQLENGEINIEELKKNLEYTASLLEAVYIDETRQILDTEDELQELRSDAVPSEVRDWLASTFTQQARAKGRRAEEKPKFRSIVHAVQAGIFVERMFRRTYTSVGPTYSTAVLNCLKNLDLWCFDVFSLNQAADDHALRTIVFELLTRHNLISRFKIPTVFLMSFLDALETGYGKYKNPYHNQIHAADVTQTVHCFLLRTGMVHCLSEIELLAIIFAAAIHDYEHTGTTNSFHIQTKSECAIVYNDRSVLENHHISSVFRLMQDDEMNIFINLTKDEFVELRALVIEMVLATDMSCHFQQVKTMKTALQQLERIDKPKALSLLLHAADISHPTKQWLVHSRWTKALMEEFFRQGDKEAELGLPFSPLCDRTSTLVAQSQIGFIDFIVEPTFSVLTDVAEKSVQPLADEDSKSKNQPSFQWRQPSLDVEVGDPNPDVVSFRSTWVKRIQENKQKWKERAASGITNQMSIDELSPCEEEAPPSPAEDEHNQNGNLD

[20] = system: mice; test: Ketamine/xylazine induced α2-adrenoceptor-mediated anaesthesia test (emetic-like effect); format: in vivo, mouse; conditions: 0.003–3 mg/kg s.c., adult mice
Procedure: The outcome measurement was the total time the animals were anesthetized, measured from anaesthesia induction to the righting reflex (i.e. when mice were back on all four paws). In order to reduce the number of animals for experimentation and to get sufficient group sizes, the experiments were performed three times with 2 recovery days in between. […] Normal distribution of data was evaluated by Kolmogorov–Smirnov and one-way ANOVA was used to compare all conditions.

[21] = target: T13, PDE4B2 (Homo sapiens, UniProt Q07343); test: PDE enzymatic profile; format: biochemical; conditions: read-out: GEBR-32a % inhibition, recombinant human PDE expressed in baculovirus
T13 construct: purchased Scottish Biochem (Glasgow, Scotland, UK); host or cells: baculovirus system

[22] = target: T14, PDE4A4 (Homo sapiens, UniProt P27815); test: PDE enzymatic profile; format: biochemical; conditions: read-out: GEBR-32a % inhibition, recombinant human PDE expressed in baculovirus
T14 construct: purchased Scottish Biochem (Glasgow, Scotland, UK); host or cells: baculovirus system

[23] = target: T15, PDE11A1 (Homo sapiens, UniProt Q9HCR9); test: PDE enzymatic profile; format: biochemical; conditions: read-out: GEBR-32a % inhibition, recombinant human PDE expressed in baculovirus, NI = no inhibition
T15 construct: purchased Scottish Biochem (Glasgow, Scotland, UK)

[24] = system: mice; parameters: method as in PMID 21649644; conditions: 0.03 and 0.3 mg/kg; same experimental conditions; cited from earlier work
[25] = system: HTLA cells; parameters: method as in PMID 27560284; conditions: 100 μM; same experimental conditions; cited from earlier work
[26] = parameters: method as in PMID 27560284; conditions: parent compound; cited from earlier work
[27] = cited from earlier work
[28] = Dipyridamole 50 μM, read-out: Comparator % inhibition
[29] = read-out: GEBR-32a % inhibition
[30] = sc, brain, 10 mg/kg s.c., BALB/c mice
[31] = sc, plasma, 10 mg/kg s.c., BALB/c mice
[32] = read-out: GEBR-32a % inhibition, 10 μM, recombinant human PDE expressed in baculovirus

T1 sequence (Q13946 whole entry): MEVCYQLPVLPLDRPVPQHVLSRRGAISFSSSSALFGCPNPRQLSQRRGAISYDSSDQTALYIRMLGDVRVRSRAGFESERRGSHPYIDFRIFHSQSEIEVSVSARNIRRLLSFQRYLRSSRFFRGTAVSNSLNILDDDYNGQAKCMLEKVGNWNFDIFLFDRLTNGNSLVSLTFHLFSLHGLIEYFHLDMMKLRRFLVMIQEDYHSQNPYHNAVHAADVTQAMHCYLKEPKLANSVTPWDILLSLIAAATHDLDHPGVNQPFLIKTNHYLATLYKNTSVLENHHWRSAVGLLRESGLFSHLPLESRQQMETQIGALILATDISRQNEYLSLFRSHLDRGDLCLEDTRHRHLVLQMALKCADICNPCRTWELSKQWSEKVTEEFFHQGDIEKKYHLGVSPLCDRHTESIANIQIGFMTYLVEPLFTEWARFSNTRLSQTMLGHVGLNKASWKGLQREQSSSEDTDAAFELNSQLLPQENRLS
T2 sequence (O60658 whole entry): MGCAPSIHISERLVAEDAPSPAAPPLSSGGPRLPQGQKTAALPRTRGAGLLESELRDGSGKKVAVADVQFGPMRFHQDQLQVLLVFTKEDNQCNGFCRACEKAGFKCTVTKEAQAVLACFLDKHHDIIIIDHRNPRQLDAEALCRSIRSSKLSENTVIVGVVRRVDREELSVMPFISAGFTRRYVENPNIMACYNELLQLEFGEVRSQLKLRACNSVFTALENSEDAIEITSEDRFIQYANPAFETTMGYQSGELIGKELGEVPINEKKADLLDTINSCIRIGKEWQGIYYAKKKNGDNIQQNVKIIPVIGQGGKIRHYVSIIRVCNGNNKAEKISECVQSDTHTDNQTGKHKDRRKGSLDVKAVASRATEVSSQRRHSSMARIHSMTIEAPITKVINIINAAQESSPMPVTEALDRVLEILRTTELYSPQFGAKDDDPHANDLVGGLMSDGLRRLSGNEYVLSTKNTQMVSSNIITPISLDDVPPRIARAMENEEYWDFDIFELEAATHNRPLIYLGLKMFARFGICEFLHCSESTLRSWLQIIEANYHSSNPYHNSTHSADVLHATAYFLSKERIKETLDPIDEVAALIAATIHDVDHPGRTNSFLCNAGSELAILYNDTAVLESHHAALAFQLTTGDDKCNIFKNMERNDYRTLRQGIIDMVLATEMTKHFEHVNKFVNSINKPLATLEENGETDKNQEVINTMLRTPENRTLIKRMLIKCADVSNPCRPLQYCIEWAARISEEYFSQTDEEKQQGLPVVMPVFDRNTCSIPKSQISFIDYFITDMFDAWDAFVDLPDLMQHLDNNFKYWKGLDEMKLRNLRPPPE

Cc1ccc([N+](=O)[O-])cc1S(=O)(=O)N(C)C [BRL-50481, reference compound]
Comparator % inhibition ([1]; BRL-50481 10 μM): 78.6 (BRL-50481 10 μM) %

OCCN(CCO)c1nc(N2CCCCC2)c2nc(N(CCO)CCO)nc(N3CCCCC3)c2n1 [Dipyridamole, reference compound]
inhibition at 50 µM [2, 28]: 64.4% | inhibition at 50 µM [3, 28]: 57.4% | inhibition at 50 µM [4, 28]: 47.3%

OC(CN1CCOCC1)Cn1ccc(-c2ccc(OC(F)F)c(OC3CCCC3)c2)n1 (centres unmarked) [GEBR-32a]
inhibition at 10 µM [5]: < 0% | cytotoxicity, lactate dehydrogenase release [6]: did not produce any significant effect | hippocampal LTP (fEPSP) ([7]; aged Tg2576 mice): rescue the LTP deficit | hippocampal LTP (fEPSP) ([7]; aged WT mice): clear, though not significant, enhancement of LTP | inhibition at 10 µM [8]: 41.6% | inhibition at 10 µM [9]: 41% | inhibition at 10 µM ([1]; read-out: GEBR-32a % inhibition, 10 μM, recombinant human PDE expressed in baculovirus, NI = no inhibition): < 0% | genotoxicity, phosphorylation of histone H2A.X [10]: did not produce any significant effect | inhibition at 10 µM [11, 29]: < 0% | EC50 ([12]; Rattus norvegicus, 0.1–100 μM, read-out: apparent EC50, increase of forskolin-induced cAMP production): 1.8 µM | elevation of forskolin-induced cAMP production ([12]; highest concentration tested (100 μM)): 4 fold | inhibition at 10 µM [2, 29]: < 0% | inhibition at 10 µM [13]: 39.4% | inhibition at 10 µM [14]: < 0% | percentage of alternations, Y-maze ([15]; adult WT mice, administered 30 min before trial, data not shown): not further improved | percentage of alternations, Y-maze ([15]; aged Tg2576 mice, acute 0.0003–0.3 mg/kg s.c. 30 min before trial): not able to induce any improvement | percentage of alternations, Y-maze ([15]; aged Tg2576 mice, chronic 0.03 mg/kg for up to 23 days): alternations significantly higher than 50% | percentage of alternations, Y-maze ([15]; aged WT mice, acute, all doses tested 0.0003–0.3 mg/kg s.c. 30 min before trial): significantly ameliorated the performance | Tmax ([16]; BALB/c, plasma and brain, subcutaneous, 10 mg/kg, absorption and distribution to the brain): 20 min | half-life ([16]; BALB/c, plasma and brain, subcutaneous, 10 mg/kg, elimination, read-out: half-life (converted)): ~60 min | Kp ([16]; in vivo, sc, 10 mg/kg s.c., BALB/c mice, read-out: AUC0-t Ratio (Brain/Plasma)): 2.71 | AUC(0-t) [16, 30]: 2.33 µg·h/mL | Cmax [16, 30]: 2610 ng/g | Tmax [16, 30]: 19.8 min | half-life ([16]; sc, brain, 10 mg/kg s.c., BALB/c mice, read-out: t1/2 (converted)): 57 min | AUC(0-t) [16, 31]: 0.861 µg·h/mL | Cmax [16, 31]: 0.993 µg/mL | Tmax [16, 31]: 19.8 min | half-life ([16]; sc, plasma, 10 mg/kg s.c., BALB/c mice, read-out: t1/2 (converted)): 57 min | increase of the forskolin-induced elevation of cAMP in cultured cells ([17]; forskolin 1 μM): 12 fold | increase of cAMP with respect to controls ([17]; without forskolin): 2.5 fold | inhibition at 10 µM [3, 32]: 23.5% | inhibition at 10 µM [18, 32]: 4.97% | inhibition at 10 µM [19, 29]: 10.7% | duration of anaesthesia (emetic-like effect) [20]: did not significantly influence the duration of anaesthesia | inhibition at 10 µM [21]: 26.3% | inhibition at 10 µM [22]: 11% | inhibition at 10 µM [4, 32]: 8.61% | inhibition at 10 µM [23]: < 0%

COc1ccc(Cc2nccc3cc(OC)c(OC)cc23)cc1OC [Papaverine, reference compound]
inhibition at 1 µM ([11]; Papaverine 1 μM, read-out: Comparator % inhibition): 90.7%

COc1ccc(C2CNC(=O)C2)cc1OC1CCCC1 (centres unmarked) [Rolipram]
duration of anaesthesia (emetic-like effect) [24]: significantly shortened anaesthesia time

CCCc1nn(C)c2c(=O)[nH]c(-c3cc(S(=O)(=O)N4CCN(C)CC4)ccc3OCC)nc12 [Sildenafil, reference compound]
inhibition at 0.1 µM ([18]; read-out: Comparator % inhibition): 74.9% | inhibition at 10 µM ([19]; Sildenafil 10 μM, read-out: Comparator % inhibition): 74.4%

COc1ccc(-c2ccn(CC(O)CN3CCOCC3)n2)cc1OC1CCCC1 (centres unmarked) [compound 8a]
increase of the forskolin-induced elevation of cAMP in cultured cells [25]: 4 fold | brain/plasma ratio [26]: 0.76

O=C(Nc1c(Cl)cncc1Cl)c1ccc(OC(F)F)c(OCC2CC2)c1 [roflumilast]
brain/plasma ratio [27]: 1
